According to patent US20220000798A1, “TRANS-RESVERATROL TOPICAL MEDICATION FOR THE TREATMENT OF PAIN AND METHOD OF MANUFACTURE THEREOF” (Ted's Brain Science, Inc., priority 2017, published 2022):

Columns and labels:
AMPK = AMPK activation by resveratrol isomers; type: biochemical; details: isomer of resveratrol
Text: It is thus realized herein that including cis-resveratrol in a topical medication would be particularly disadvantageous, because it would contribute to the grainy or greasy feeling of the medication without contributing to its AMPK-activating efficacy.

pain = details: animal model (rodents); administration by injection; cited from earlier work
[1] = storage stability of trans-resveratrol powder; type: physicochemical; details: well-sealed containers kept away from light
Procedure: In one embodiment, trans-resveratrol is prepared in the form of off-white to cream-colored powder with >99% purity as determined by high-performance liquid chromatography (HPLC) methodology. The resulting powder has a melting point of 260-264° C.

Structure (SMILES) | AMPK activation (AMPK) | efficacy in mitigation of pain (pain) | stability over time [1]
Oc1ccc(/C=C\c2cc(O)cc(O)c2)cc1 [Cis-resveratrol] | appears not to activate AMPK to any meaningful degree or extent |  | 
Oc1ccc(C=Cc2cc(O)cc(O)c2)cc1 [resveratrol] |  | has shown efficacy in mitigation of pain | 
Oc1ccc(/C=C/c2cc(O)cc(O)c2)cc1 [trans-resveratrol, 3,4′,5-trihydroxystilbene] | activates AMPK |  | over two years
